Measured values as given in patent US20110171279A1, “POLYETHYLENIMINE BIOCIDES” (NDSU RESEARCH FOUNDATION, priority 2009, published 2011).
≈ marks a conversion by molar mass, not a printed value. Where two headings read alike, the source gives them in different places.

Legend:
Format in all cases: cell-based
[1] = test system: Cellulophaga lytica; assay: Growth reduction / MIC test against Cellulophaga lytica; settings: for MIC: Cellulophaga lytica; for Percent reduction in growth of Cellulophaga lytica: Table 5
Experimental: (§1) The antimicrobial properties of the Formulations were determined by measuring the minimum inhibitory concentration (MIC) or by using an adaptation of the MIC test. […] Additional details of the MIC method can be found at Andrews, J. M., Journal of Antimicrobial Chemotherapy (2001) 48, 5-16, incorporated herein by reference in its entirety.
(§2) In accordance with the MIC test, working solutions for each Formulation were prepared by dissolving 100 mg of each Formulation in 10 mL of methanol (Sigma-Aldrich) to generate a 10 mg/mL solution. Next, 10 ml of Guillard's F/2 medium was spiked with 200 μL of the 10 mg/mL Formulation solution to achieve a final concentration of 0.2 mg/mL.
(§3) 0.2 mL of each concentration of each Formulation (spiked with C. lytica) was added in triplicate to a 96-well plate. Additionally, 0.2 mL of Guillard's F/2 medium without any C. lytica or Formulation and 0.2 mL of Guillard's F/2 medium with C. lytica, but no Formulations, served as negative and positive growth controls, respectively. The 96-well plates were placed in an illuminated growth cabinet with a 16:8 light:dark cycle (photon flux density 33 μmol m^−2 s^−1) for 48 hrs at 18° C. and measured for chlorophyll fluorescence using a multi-well plate spectrophotometer (excitation: 360 nm; emission: 670 nm). The efficacy of each Formulation was measured by determining the percent reduction in diatom growth as a function of Formulation concentration.
(§4) The antimicrobial activity of Formulations 10-12, also derived from ETCS and PEI, was determined toward a suite of marine microorganisms, namely, Pseudoalteromonas atlantica, Cellulophaga lytica, Cobetia marina, and Halomonas pacifica. The antimicrobial activity of Formulations 10-12 was determined toward these marine microorganisms according to the methods of EXAMPLES 5-7. The MIC for each Formulation against each strain is compared to that of the PEI, ETCS, and TCS (alone) in Table 7.

[2] = test system: Staphylococcus epidermidis; assay: Growth reduction / MIC test against Staphylococcus epidermidis in tryptic soy broth, absorbance 600 nm; settings: for Percent reduction in growth of Staphylococcus epidermidis: Table 2; for MIC: Staphylococcus epidermidis, read-out: S. epidermidis MIC
Experimental: as §1
as §2, with “tryptic soy broth” for “Guillard's F/2 medium”, “the” for “the 10”
0.2 mL of each concentration of each Formulation (spiked with S. epidermidis) was added in triplicate to a 96-well plate. Additionally, 0.2 mL of tryptic soy broth without any S. epidermidis or Formulation and 0.2 mL of tryptic soy broth with S. epidermidis, but no Formulations, served as negative and positive growth controls, respectively. Plates were then placed in an incubator, at 37° C. for 24 hrs (with shaking), and then measured for growth by taking absorbance measurements at 600 nm with a multi-well plate spectrophotometer (Synergy HT microplate reader, BioTek Instruments, Winooski, Vt.). The efficacy of each Formulation was measured by determining the percent reduction in bacterial growth as a function of Formulation concentration.
For comparison purposes a benzylpiperidino biocide (“Reference 1”) was prepared using ETCS and synthetic methods similar to those described in U.S. Pat. No. 5,036,077, issued Jul. 30, 1991, and incorporated by reference in its entirety. To make Reference 1, 3.9 g of ETCS and 2 g of 4-benzylpiperidine were reacted in 30 mL of methanol. The mixture was heated at 65° C. for 48 hours. Reaction completion was confirmed by ^1H NMR, ^13C NMR, HMQC (2D) NMR and elemental analysis. The antimicrobial activity of Formulations 69-77 and Reference 1 toward S. epidermidis was measured by determining the percent reduction in bacterial growth as a function of concentration, as was done above in EXAMPLE 3.

[3] = test system: Cobetia marina; assay: MIC test against Cobetia marina
Experimental: as §1, §4

[4] = test system: Halomonas pacifica; assay: Growth reduction / MIC test against Halomonas pacifica; settings: for MIC: Bisbaumannia pacifica; for Percent reduction in growth of Halomonas pacifica: Table 6
Experimental: as §1, §2
0.2 mL of each H. pacifica concentration was added in triplicate to a 96-well plate. Additionally, 0.2 mL of Guillard's F/2 medium without any H. pacifica or Formulation and 0.2 mL of Guillard's F/2 medium with H. pacifica, but no Formulations, served as negative and positive growth controls, respectively. The 96-well plates were placed in an illuminated growth cabinet with a 16:8 light:dark cycle (photon flux density 33 μmol m^−2 s^−1) for 48 hrs at 18° C. and measured for chlorophyll fluorescence using a multi-well plate spectrophotometer (excitation: 360 nm; emission: 670 nm). The efficacy of each Formulation was measured by determining the percent reduction in diatom growth as a function of Formulation concentration.
as §4

[5] = test system: Navicula incerta; assay: Growth reduction / MIC test against Navicula incerta in Guillard's F/2 medium, chlorophyll fluorescence; settings: for Percent reduction in growth of Navicula incerta: Table 4
Experimental: as §1, §2
as §3, with “N. incerta)” for “C. lytica)”, “N. incerta” for “C. lytica”, “N. incerta,” for “C. lytica,”

[6] = Formulation Concentration 0.78125 μg/mL
[7] = Formulation Concentration 1.5625 μg/mL
[8] = Formulation Concentration 3.125 μg/mL
[9] = Formulation Concentration 6.25 μg/mL
[10] = Formulation Concentration 12.5 μg/mL
[11] = Formulation Concentration 25 μg/mL
[12] = Formulation Concentration 50 μg/mL
[13] = Formulation Concentration 100 μg/mL

SMILES	Percent reduction in growth of Cellulophaga lytica [1, 6]	Percent reduction in growth of Cellulophaga lytica [1, 7]	Percent reduction in growth of Cellulophaga lytica [1, 8]	Percent reduction in growth of Cellulophaga lytica [1, 9]	Percent reduction in growth of Cellulophaga lytica [1, 10]	Percent reduction in growth of Cellulophaga lytica [1, 11]	Percent reduction in growth of Cellulophaga lytica [1, 12]	Percent reduction in growth of Cellulophaga lytica [1, 13]	Percent reduction in growth of Staphylococcus epidermidis [2, 6]	Percent reduction in growth of Staphylococcus epidermidis [2, 7]	Percent reduction in growth of Staphylococcus epidermidis [2, 8]	Percent reduction in growth of Staphylococcus epidermidis [2, 9]	Percent reduction in growth of Staphylococcus epidermidis [2, 10]	Percent reduction in growth of Staphylococcus epidermidis [2, 11]	Percent reduction in growth of Staphylococcus epidermidis [2, 12]	Percent reduction in growth of Staphylococcus epidermidis [2, 13]	Percent reduction in growth of Halomonas pacifica [4, 6]	Percent reduction in growth of Halomonas pacifica [4, 7]	Percent reduction in growth of Halomonas pacifica [4, 8]	Percent reduction in growth of Halomonas pacifica [4, 9]	also measured
Clc1ccc(Oc2ccc(Cl)cc2OCC2CO2)c(Cl)c1 (centres unmarked) [ETCS, 2-((5-chloro-2-(2,4-dichlorophenoxy)phenoxy)methyl)oxirane]	0.00%	5.92%	10.06%	11.24%	33.73%	57.40%	69.23%	14.20%	0.00%	9.43%	8.30%	16.36%	18.64%	17.39%	22.16%	9.55%	0.00%	11.15%	11.78%	12.90%	MIC ([1]; Table 7, read-out: C. lytica MIC): > 100 µg/mL; C. lytica MIC ([1]; Table 12): >100 µg/mL; MIC ([2]; Table 12): > 100 µg/mL; MIC ([3]; Table 7, read-out: C. marina MIC): > 100 µg/mL; MIC ([4]; Table 7, read-out: H. pacifica MIC): > 100 µg/mL; Percent reduction in growth of Halomonas pacifica [4, 10]: 16.72%; Percent reduction in growth of Halomonas pacifica [4, 11]: 16.08%; Percent reduction in growth of Halomonas pacifica [4, 12]: 7.01%; Percent reduction in growth of Halomonas pacifica [4, 13]: 0.00%; H. pacifica MIC ([4]; Table 12): >100 µg/mL; Percent reduction in growth of Navicula incerta [5, 6]: 0.00%; Percent reduction in growth of Navicula incerta [5, 7]: 0.00%; Percent reduction in growth of Navicula incerta [5, 8]: 0.00%; Percent reduction in growth of Navicula incerta [5, 9]: 0.00%; Percent reduction in growth of Navicula incerta [5, 10]: 34.14%; Percent reduction in growth of Navicula incerta [5, 11]: 89.92%; Percent reduction in growth of Navicula incerta [5, 12]: 91.40%; Percent reduction in growth of Navicula incerta [5, 13]: 93.37%
Oc1cc(Cl)ccc1Oc1ccc(Cl)cc1Cl [TCS, triclosan]	12.29%	32.40%	59.78%	86.87%	86.87%	87.15%	87.15%	86.59%	81.36%	86.70%	92.70%	92.96%	93.09%	92.83%	93.09%	93.35%	0.00%	0.00%	0.00%	9.94%	MIC ([1]; read-out: C. lytica MIC, Table 7): 6.25 to 12.5 µg/mL (≈ 21.6 to 43.2 µM); MIC ([1]; read-out: C. lytica MIC, Table 12): 12.5 µg/mL (≈ 43.2 µM); MIC [2]: 0.781 µg/mL; MIC ([3]; read-out: C. marina MIC): > 100 µg/mL; MIC ([4]; read-out: H. pacifica MIC, Table 7): 50 to 100 µg/mL (≈ 173 to 345 µM); MIC ([4]; read-out: H. pacifica MIC, Table 12): 100 µg/mL (≈ 345 µM); Percent reduction in growth of Halomonas pacifica [4, 10]: 17.32%; Percent reduction in growth of Halomonas pacifica [4, 11]: 37.65%; Percent reduction in growth of Halomonas pacifica [4, 12]: 93.07%; Percent reduction in growth of Halomonas pacifica [4, 13]: 92.77%; Percent reduction in growth of Navicula incerta [5, 6]: 14.26%; Percent reduction in growth of Navicula incerta [5, 7]: 22.00%; Percent reduction in growth of Navicula incerta [5, 8]: 84.51%; Percent reduction in growth of Navicula incerta [5, 9]: 91.29%; Percent reduction in growth of Navicula incerta [5, 10]: 94.57%; Percent reduction in growth of Navicula incerta [5, 11]: 93.55%; Percent reduction in growth of Navicula incerta [5, 12]: 94.21%; Percent reduction in growth of Navicula incerta [5, 13]: 94.95%; MIC ([5]; read-out: N. incerta MIC): 3.12 µg/mL (≈ 10.8 µM)
